Data published in patent US9272047B2, “Use of biological surfactant as anti-inflammatory agent and tissue preservative solution” (Shaperon Inc., priority 2007, dated 2016).
“Also recorded” adds a separate entry of the source.

Columns and labels:
[1] = tested on: interaction between fluorescein-labeled E. coli LPS and a CHO cell; test: Inhibition of the interaction between fluorescein (BODIPY)-labeled E. coli LPS and CHO cells, flow cytometry; assay type: cell-based, Chinese hamster; settings: CHO cells, 7-AAD(−) living cells
Description: Boron dipyrromethene difluoride (BODIPY), a fluorescein, labeled E. coli LPS and CHO cells were used. BODIPY-labeled LPS was reacted with sodium glycocholate in a glass tube at 37° C. for 14 hours. 2×10^5 CHO cells mixed with the reacting solution were plated per well in a 96-well plate, and then incubated at 37° C. for 14 hours. The incubated solution was stained with 7-amino-actinomycin D (7-AAD) and then analyzed by a flow cytometer. The analysis was performed at least twice per each treatment group and the obtained data were statistically processed by t-test. The result was P<0.05 in comparison with the experimental group in which CHO cells were treated with only BODIPY-LPS.
7-AAD(−) cells were selected in order to analyze living cells. […] Therefore, it could be realized that Inflammatory inhibition efficacy of sodium glycocholate shown in the LPS-stimulated inflammatory response was due to the blocking of the interaction between LPS and cells by the action of sodium glycocholate.

dendritic cells = test: Inhibition of LPS-induced nitric oxide generation, dendritic cells (Griess); assay type: cell-based, mouse; settings: dendritic cells stimulated by LPS, 18 hours
Description: Then, the resulting dendritic cell mixtures were plated, by […] each, in a 96-well plate. Griss reagents were added to each well, and the 96-well plate was covered with foils and kept reacting for 15 min at room temperature. Absorbance at 540 nm was measured using an ELISA reader. Macrophages separated from abdomen were also treated with sodium glycocholate, sodium taurochenodeoxycholate and sodium taurodeoxycholate, respectively, and then stimulated with LPS for 18 hours. Thereafter, the same experiments as the dentritic cells were performed to the macrophages.

[2] = tested on: dendritic cell-mediated T cell; test: Inhibition of the activation of dendritic cell-mediated T cell by E. coli LPS ([3H]-methylthymidine); assay type: cell-based, mouse
Description: Antigen presenting cells activated by LPS activates T cells. It was tested whether dendritic cells blocked by sodium glycocholate can activate T cells when LPS activates dendritic cells. Cells were harvested from the bone marrow of Rag2 deficient male mouse. The harvested cells were plated at 4×10^3 cells/well in a 96-well plate and treated with 1.5 ng/ml of […] and 0.75 ng/ml of interleukin-4, and then incubated for 6 days to differentiate into dendritic cells. Sodium glycocholate was reacted with LPS for 1 hour at 37° C., and then mixed with the dendritic cells. The dendritic cells were stimulated for 14 hours at 37° C., and CD3+ and CD4+ T cells separated from female Marilyn mouse having H-Y antigen-specific T cell receptor (TCR), were incubated with the dendritic cells for 72 hours. [3H]-methylthymidine was added, at 1 μCi/well, to the 96-well plate and then incubated for 18 hours. Cells were harvested from the 96-well plated and then CPM (count per minute) was measured through a beta counter.

[3] = tested on: LPS-administered C57BL/6 mouse; test: In vivo serum cytokines in LPS-administered mice (CBA kit)
Description: As described in Example 7, 20 mg/kg of LPS was administered into the abdomen of mice and then 12.5 mg/kg of sodium glycocholate, and 20 mg/kg of LPS and 50 mg/kg of sodium glycocholate respectively was administered twice into the abdomen of mice, respectively. At the predetermined time, blood was collected from mouse tail and then serum was obtained by centrifugation (2400×g, 10 min). The change of cytokine expression in the serum was measured by using cytometric bead array (CBA) kit.

CHO cells = test: Cytotoxicity to CHO cells (7AAD, FACS); assay type: cell-based, Chinese hamster
Description: The cytotoxicity of sodium glycocholate to the CHO cells, dendritic cells, T cells which were used in the above Examples was assayed. FACS analysis was performed after staining with 7AAD. First, sodium glycocholate was kept in vitro for 1 hour at 37° C., and then mixed with cells. CHO cells or dendritic cells were incubated for 14 hours at 37° C., and T cells which were mixed with 14 hour-incubated dendritic cells, were incubated for 4 days. Then, each cell was stained with 7AAD and cell analysis were carried out by using a flow cytometer.
The same procedures as for FIG. 25A were carried out in FIGS. 26A-26C-Figs. 31A-31B and cytotoxicity experiments were performed on three groups of bile acid derivatives which were classified based on their solubility in different solvents.

abdominal cells = test: Toxicity to abdominal cells separated from mice after abdominal administration (7AAD); assay type: in vivo, C57BL/6 mouse; settings: 5 mg (250 mg/kg) into abdomen, cells separated after 1 hour
Description: In order to assay the toxicity of sodium glycocholate to a mouse, experiments were performed to five C57BL/6 male mice of 7-9 weeks age per each group. Sodium glycocholate dissolved in PBS was kept in vitro for 1 hour at 37° C., and then the sodium glycocholate solution was administered into the abdomen of the mice followed by the cell analysis. After 1 hour from the administration, the abdominal cells were separated and stained with 7AAD, and then the abdominal cells were analyzed. Cells which were freezed and thawed at least five times were used for a positive control group in 7ADD staining. Experimental results were statistically analyzed by t-test, and p<0.05 compared with the experimental group which was not treated with sodium glycocholate.

Balb/c mice = test: Acute toxicity in mice, single administration into abdomen or tail vein; assay type: in vivo
Description: Acute toxicity was measured by using five Balb/c mice of 6 weeks age per group, which were once administered with sodium glycocholate, at different sodium glycocholate concentrations, into the abdomen and tail vein. […] However, 250 mg/kg of sodium glycocholate at which the above-mentioned effects of sodium glycocholate, and the sodium glycocholate concentration of below 250 mg/kg, 100 % of the mice survived (FIGS. 32A-32B). Also, 100 % of the mice survived at the sodium glycocholate concentration of not exceeding 150 mg/kg in the experiment where sodium glycocholate of different concentrations was adiministered into tail vein of mice (FIG. 33).

Structure (SMILES): C[C@H](CCC(=O)NCC(=O)[O-])[C@H]1CC[C@H]2[C@@H]3[C@H](O)C[C@@H]4C[C@H](O)CC[C@]4(C)[C@H]3C[C@H](O)[C@]12C.[Na+] [sodium glycocholate]
- interaction between BODIPY-LPS and the cell [1]: inhibited according to the increase of the concentration
- generation of NO (dendritic cells): inhibited
- inhibition of proliferation of dendritic cell-mediated T cell ([2]; 0.5 mg/ml): 104.9±3.2%
- inhibition of proliferation of dendritic cell-mediated T cell ([2]; 1 mg/ml): 105.1±3.2%
- IL-10 in serum [3]: significantly increased; also recorded: increase
- IFN-g in serum ([3]; after 4, 8 and 12 hours): decrease
- IL-12p70 in serum ([3]; after 4, 8 and 12 hours): decrease
- IL-6 in serum ([3]; after 12, 24 and 48 hours): remarkably decreased; also recorded: decrease
- MCP-1 in serum ([3]; after 12, 24 and 48 hours): remarkably decreased; also recorded: decrease
- TNF-α in serum ([3]; after 12, 24 and 48 hours): remarkably decreased; also recorded: decrease
- cytotoxicity (CHO cells; 1 mg/ml): no significant cytotoxicity; also recorded: dose not have cytotoxicity
- 7AAD(+) increase compared with the negative control group (CHO cells; 14 hours): 2-4%
- cytotoxicity for abdominal cells (survival rate of the abdominal cells versus PBS control) (abdominal cells): no significant difference; also recorded: dose not have cytotoxicity
- mice survived (Balb/c mice; abdominal administration, 250 mg/kg and below): 100%
- concentration (dose) at which toxicity was shown (Balb/c mice; abdominal administration, single dose): > 500 mg/kg
- adverse effect (Balb/c mice; mouse test, dose of 250 mg/kg mouse): no adverse effect
- mice survived (Balb/c mice; tail vein administration, not exceeding 150 mg/kg): 100%
